Experimental data: the NIST ThermoML archive (doi:10.1021/je800325d)

Columns and labels:
[1] = 101.33 kPa, Liquid; for viscosity: Capillary tube (Ostwald / Ubbelohde) method
[2] = refractive index (Na D-line) (dimensionless); details: 101.33 kPa, Liquid, Standard Abbe refractometry
[3] = xn = mol fraction of the nth substance listed; details: 101 kPa, Liquid
[4] = refractive index (Na D-line) (dimensionless); xn = mol fraction of the nth substance listed; details: 101 kPa, Liquid, Standard Abbe refractometry

Cc1ccccc1C [1,2-dimethylbenzene]
Details	refractive index, [2]	viscosity, [1] [mPa·s]
303.15 K	1.5001	0.695
313.15 K	1.4981	0.621

[1], Pycnometric method
Details	mass density [kg/m3]
303.15 K	871.5
313.15 K	863.3

Cc1cccc(C)c1 [1,3-dimethylbenzene]
Details	refractive index, [2]	viscosity, [1] [mPa·s]
303.15 K	1.492	0.557
313.15 K	1.4901	0.508

[1], Pycnometric method
Details	mass density [kg/m3]
303.15 K	855.3
313.15 K	847.1

Cc1ccc(C)cc1 [1,4-dimethylbenzene]
Details	refractive index, [2]	viscosity, [1] [mPa·s]
303.15 K	1.4911	0.566
313.15 K	1.4902	0.517

[1], Pycnometric method
Details	mass density [kg/m3]
303.15 K	852.1
313.15 K	843.5

CC(=O)OCCC(C)C [3-methylbutyl ethanoate]
Details	refractive index, [2]	viscosity, [1] [mPa·s]
303.15 K	1.3959	0.741
313.15 K	1.3945	0.649

[1], Pycnometric method
Details	mass density [kg/m3]
303.15 K	862.3
313.15 K	852.8

CCc1ccccc1 [ethylbenzene]
Details	mass density, [1] [kg/m3]	refractive index, [2]	viscosity, [1] [mPa·s]
303.15 K	857.6	1.491	0.597
313.15 K	849.2	1.4891	0.538

COC(=O)c1ccccc1 [methyl benzoate]
Details	refractive index, [2]	viscosity, [1] [mPa·s]
303.15 K	1.5127	1.679
313.15 K	1.5083	1.414

[1], Pycnometric method
Details	mass density [kg/m3]
303.15 K	1078.8
313.15 K	1069.2

COC(=O)c1ccccc1 [methyl benzoate] + Cc1cccc(C)c1
Details	mass density, [3] [kg/m3]	refractive index, [4]	viscosity, [3] [mPa·s]
303.15 K, x1 = 0.1071	878.7	1.4933	0.609
303.15 K, x1 = 0.203	900.2	1.4943	0.672
303.15 K, x1 = 0.3034	922.3	1.4954	0.739
303.15 K, x1 = 0.3924	941.4	1.4962	0.824
303.15 K, x1 = 0.4909	962.7	1.4973	0.923
303.15 K, x1 = 0.5978	985.7	1.5004	1.023
303.15 K, x1 = 0.6867	1004.6	1.5033	1.134
303.15 K, x1 = 0.8125	1029.6	1.5069	1.316
303.15 K, x1 = 0.8734	1043.8	1.5093	1.403
303.15 K, x1 = 0.9518	1059.6	1.5107	1.565
313.15 K, x1 = 0.1071	870.6	1.4911	0.544
313.15 K, x1 = 0.203	891.9	1.4919	0.598
313.15 K, x1 = 0.3034	914.2	1.4927	0.654
313.15 K, x1 = 0.3924	933.2	1.4933	0.729
313.15 K, x1 = 0.4909	954.4	1.4941	0.804
313.15 K, x1 = 0.5978	977.1	1.496	0.892
313.15 K, x1 = 0.6867	995.8	1.4987	0.978
313.15 K, x1 = 0.8125	1021.9	1.502	1.122
313.15 K, x1 = 0.8734	1034.8	1.504	1.191
313.15 K, x1 = 0.9518	1050.7	1.5064	1.317

COC(=O)c1ccccc1 [methyl benzoate] + Cc1ccccc1C
Details	mass density, [3] [kg/m3]	refractive index, [4]	viscosity, [3] [mPa·s]
303.15 K, x1 = 0.0879	890.4	1.5006	0.757
303.15 K, x1 = 0.1997	911.4	1.5007	0.842
303.15 K, x1 = 0.3008	931.3	1.501	0.908
303.15 K, x1 = 0.3925	951.2	1.5012	0.975
303.15 K, x1 = 0.4928	970.9	1.5016	1.06
303.15 K, x1 = 0.5939	991.7	1.5022	1.16
303.15 K, x1 = 0.6852	1009.5	1.5055	1.252
303.15 K, x1 = 0.798	1031.6	1.5083	1.395
303.15 K, x1 = 0.8981	1052.1	1.511	1.506
303.15 K, x1 = 0.9485	1056.3	1.5115	1.593
313.15 K, x1 = 0.0879	882.3	1.497	0.664
313.15 K, x1 = 0.1997	902.1	1.4971	0.72
313.15 K, x1 = 0.3008	922.8	1.498	0.785
313.15 K, x1 = 0.3925	942.6	1.4996	0.836
313.15 K, x1 = 0.4928	962.4	1.5002	0.91
313.15 K, x1 = 0.5939	983	1.5017	0.992
313.15 K, x1 = 0.6852	1000.7	1.5038	1.07
313.15 K, x1 = 0.798	1022.5	1.5062	1.171
313.15 K, x1 = 0.8981	1042.8	1.5085	1.29
313.15 K, x1 = 0.9485	1046.7	1.5101	1.351
